Experimental data from US9663528B2, “Substituted 1,2,3,4,6,8,12,12a-octahydro-1,4-methanodipyrido[1,2-a:1',2'-d]pyrazines and methods for treating viral infections” (priority 2012, dated 2017).
Like-named read-outs stand apart in the source and are kept apart here.

Assays:
HIV-IIIb = assay: Antiviral assay in MT4 cells; type: cell-based; settings: MT4 cells infected with HIV-IIIb, 5 days incubation; read-out: EC50 nM in MT-4
Description: For the antiviral assay utilizing MT4 cells, 0.4 μL of […] test concentration of 3-fold serially diluted compound in DMSO was added to 40 μL of cell growth medium (RPMI 1640, 10% FBS, 1% penicilline/Streptomycine, 1% L-Glutamine, 1% HEPES) in each well of 384-well assay plates (10 concentrations) in quidruplicate.
1 mL aliquots of 2×10^6 MT4 cells are pre-infected for 1 and 3 hours respectively at 37° C. with 25 μL (MT4) or of either cell growth medium (mock-infected) or a fresh 1:250 dilution of an HIV-IIIb concentrated ABI stock (0.004 m.o.i. for MT4 cells). Infected and uninfected cells are diluted in cell growth medium and 35 μL of 2000 (for MT4) cells is added to each well of the assay plates.
Assay plates were then incubated in a 37° C. incubator. After 5 days of incubation, 25 μL of 2× concentrated CellTiter-Glo™ Reagent (catalog #G7573, Promega Biosciences, Inc., Madison, Wis.) was added to each well of the assay plate. Cell lysis was carried out by incubating at room temperature for 2-3 minutes, and then chemiluminescence was read using the Envision reader (PerkinElmer).

MT4 cells = assay: in vitro
PXR = PXR (Homo sapiens (Human), UniProt O75469); assay: Human PXR activation assay (luciferase reporter gene assay, DPX2 cells); type: cell-based; settings: 15 μM; relative to maximum fold induction by 10 or 20 μM rifampicin; DPX2 cells, 24 hours
Description: A stably transformed tumor cell line (DPX2) was plated on 96-well microtiter plates. DPX2 cells harbor the human PXR gene (NR112) and a luciferase reporter gene linked to two promoters identified in the human CYP3A4 gene, namely XREM and PXRE. […] The number of viable cells was determined and the reporter gene activity was assessed. Positive control: […]

Sequence of PXR (O75469 whole entry): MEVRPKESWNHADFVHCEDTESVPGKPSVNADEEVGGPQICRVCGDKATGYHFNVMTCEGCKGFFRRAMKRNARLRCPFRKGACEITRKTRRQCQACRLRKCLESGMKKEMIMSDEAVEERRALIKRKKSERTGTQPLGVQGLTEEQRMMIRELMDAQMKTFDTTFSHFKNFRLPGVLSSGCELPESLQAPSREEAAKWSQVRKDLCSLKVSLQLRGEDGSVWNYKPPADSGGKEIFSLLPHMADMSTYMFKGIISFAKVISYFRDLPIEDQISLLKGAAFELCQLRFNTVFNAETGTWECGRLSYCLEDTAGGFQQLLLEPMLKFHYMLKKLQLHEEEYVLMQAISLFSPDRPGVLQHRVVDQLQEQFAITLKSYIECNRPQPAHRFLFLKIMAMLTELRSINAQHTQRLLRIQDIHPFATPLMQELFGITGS

SMILES | EC50 (HIV-IIIb) | CC50 (MT4 cells) | % Emax at 15 μM (PXR) | CC50 (MT4 cells; human, 5 days)
O=C(NCc1c(F)cc(F)cc1F)c1cn2c(c(O)c1=O)C(=O)N1[C@H]3CC[C@H](CC3)[C@@H]1C2 [Compound 102, (1S,4S,12aR)-7-hydroxy-6,8-dioxo-N-(2,4,6-trifluorobenzyl)-1,2,3,4,6,8,12,12a-octahydro-1,4-ethanodipyrido[1,2-a:1′,2′-d]pyrazine-9-carboxamide] | 2.3 nM | 12 µM | 123% | –
O=C(NCc1c(F)cc(F)cc1F)c1cn2c(c(O)c1=O)C(=O)N1[C@H]3CC[C@H](CC3)[C@H]1C2 [Compound 101, (11R,4R,12aS)-7-hydroxy-6,8-dioxo-N-(2,4,6-trifluorobenzyl)-1,2,3,4,6,8,12,12a-octahydro-1,4-ethanodipyrido[1,2-a:1′,2′-d]pyrazine-9-carboxamide] | 2.1 nM | 11.6 µM | – | –
O=C(NC1(c2ccc(F)cc2F)CC1)c1cn2c(c(O)c1=O)C(=O)N1[C@@H]3CC[C@@H](C3)O[C@H]1C2 [Compound 30, (2S,5R,13aS)-N-(1-(2,4-difluorophenyl)cyclopropyl)-8-hydroxy-7,9-dioxo-2,3,4,5,7,9,13,13a-octahydro-2,5-methanopyrido[1′,2′:4,5]pyrazino[2,1-b][1,3]oxazepine-10-carboxamide] | 4 nM | – | – | 6.83 µM
